According to ChEMBL document CHEMBL5154747, “Discovery of new carbonic anhydrase IX inhibitors as anticancer agents by toning the hydrophobic and hydrophilic rims of the active site to encounter the dual-tail approach” (Eur J Med Chem, 2022):

Experiments:
Assay type in all cases: functional
Conditions in all cases: read-out: GI
CCRF-CEM = test: Anticancer activity against human CCRF-CEM cells assessed as cell growth inhibition at 10 uM incubated for 48 hrs by SRB assay relative to control
K562 = test: Anticancer activity against human K562 cells assessed as cell growth inhibition at 10 uM incubated for 48 hrs by SRB assay relative to control
MOLT-4 = test: Anticancer activity against human MOLT-4 cells assessed as cell growth inhibition at 10 uM incubated for 48 hrs by SRB assay relative to control
RPMI-8226 = test: Anticancer activity against human RPMI-8226 cells assessed as cell growth inhibition at 10 uM incubated for 48 hrs by SRB assay relative to control
SR = test: Anticancer activity against human SR cells assessed as cell growth inhibition at 10 uM incubated for 48 hrs by SRB assay relative to control
EKVX = test: Anticancer activity against human EKVX cells assessed as cell growth inhibition at 10 uM incubated for 48 hrs by SRB assay relative to control
HOP-62 = test: Anticancer activity against human HOP-62 cells assessed as cell growth inhibition at 10 uM incubated for 48 hrs by SRB assay relative to control
NCI-H226 = test: Anticancer activity against human NCI-H226 cells assessed as cell growth inhibition at 10 uM incubated for 48 hrs by SRB assay relative to control
NCI-H23 = test: Anticancer activity against human NCI-H23 cells assessed as cell growth inhibition at 10 uM incubated for 48 hrs by SRB assay relative to control
NCI-H322M = test: Anticancer activity against human NCI-H322M cells assessed as cell growth inhibition at 10 uM incubated for 48 hrs by SRB assay relative to control
NCI-H460 = test: Anticancer activity against human NCI-H460 cells assessed as cell growth inhibition at 10 uM incubated for 48 hrs by SRB assay relative to control
NCI-H522 = test: Anticancer activity against human NCI-H522 cells assessed as cell growth inhibition at 10 uM incubated for 48 hrs by SRB assay relative to control
COLO 205 = test: Anticancer activity against human COLO 205 cells assessed as cell growth inhibition at 10 uM incubated for 48 hrs by SRB assay relative to control
HCC 2998 = test: Anticancer activity against human HCC 2998 cells assessed as cell growth inhibition at 10 uM incubated for 48 hrs by SRB assay relative to control
HCT-15 = test: Anticancer activity against human HCT-15 cells assessed as cell growth inhibition at 10 uM incubated for 48 hrs by SRB assay relative to control
HT-29 = test: Anticancer activity against human HT-29 cells assessed as cell growth inhibition at 10 uM incubated for 48 hrs by SRB assay relative to control
KM12 = test: Anticancer activity against human KM12 cells assessed as cell growth inhibition at 10 uM incubated for 48 hrs by SRB assay relative to control
SW-620 = test: Anticancer activity against human SW-620 cells assessed as cell growth inhibition at 10 uM incubated for 48 hrs by SRB assay relative to control
SF-268 = test: Anticancer activity against human SF-268 cells assessed as cell growth inhibition at 10 uM incubated for 48 hrs by SRB assay relative to control
SF-539 = test: Anticancer activity against human SF-539 cells assessed as cell growth inhibition at 10 uM incubated for 48 hrs by SRB assay relative to control
SNB-75 = test: Anticancer activity against human SNB-75 cells assessed as cell growth inhibition at 10 uM incubated for 48 hrs by SRB assay relative to control
U-251 = test: Anticancer activity against human U-251 cells assessed as cell growth inhibition at 10 uM incubated for 48 hrs by SRB assay relative to control
LOX IMVI = test: Anticancer activity against human LOX IMVI cells assessed as cell growth inhibition at 10 uM incubated for 48 hrs by SRB assay relative to control
MDA-MB-435 = test: Anticancer activity against human MDA-MB-435 cells assessed as cell growth inhibition at 10 uM incubated for 48 hrs by SRB assay relative to control
SK-MEL-2 = test: Anticancer activity against human SK-MEL-2 cells assessed as cell growth inhibition at 10 uM incubated for 48 hrs by SRB assay relative to control
SK-MEL-28 = test: Anticancer activity against human SK-MEL-28 cells assessed as cell growth inhibition at 10 uM incubated for 48 hrs by SRB assay relative to control
UACC-62 = test: Anticancer activity against human UACC-62 cells assessed as cell growth inhibition at 10 uM incubated for 48 hrs by SRB assay relative to control
OVCAR-3 = test: Anticancer activity against human OVCAR-3 cells assessed as cell growth inhibition at 10 uM incubated for 48 hrs by SRB assay relative to control
OVCAR-5 = test: Anticancer activity against human OVCAR-5 cells assessed as cell growth inhibition at 10 uM incubated for 48 hrs by SRB assay relative to control
OVCAR-8 = test: Anticancer activity against human OVCAR-8 cells assessed as cell growth inhibition at 10 uM incubated for 48 hrs by SRB assay relative to control
NCI/ADR-RES = test: Anticancer activity against human NCI/ADR-RES cells assessed as cell growth inhibition at 10 uM incubated for 48 hrs by SRB assay relative to control
SK-OV-3 = test: Anticancer activity against human SK-OV-3 cells assessed as cell growth inhibition at 10 uM incubated for 48 hrs by SRB assay relative to control
A498 = test: Anticancer activity against human A498 cells assessed as cell growth inhibition at 10 uM incubated for 48 hrs by SRB assay relative to control
ACHN = test: Anticancer activity against human ACHN cells assessed as cell growth inhibition at 10 uM incubated for 48 hrs by SRB assay relative to control
RXF 393 = test: Anticancer activity against human RXF 393 cells assessed as cell growth inhibition at 10 uM incubated for 48 hrs by SRB assay relative to control
PC-3 = test: Anticancer activity against human PC-3 cells assessed as cell growth inhibition at 10 uM incubated for 48 hrs by SRB assay relative to control
DU-145 = test: Anticancer activity against human DU-145 cells assessed as cell growth inhibition at 10 uM incubated for 48 hrs by SRB assay relative to control
BT-549 = test: Anticancer activity against human BT-549 cells assessed as cell growth inhibition at 10 uM incubated for 48 hrs by SRB assay relative to control
T47D = test: Anticancer activity against human T47D cells assessed as cell growth inhibition at 10 uM incubated for 48 hrs by SRB assay relative to control
MDA-MB-468 = test: Anticancer activity against human MDA-MB-468 cells assessed as cell growth inhibition at 10 uM incubated for 48 hrs by SRB assay relative to control

Row | SMILES | inhibition of growth at 10 µM (CCRF-CEM) | inhibition of growth at 10 µM (K562) | inhibition of growth at 10 µM (MOLT-4) | inhibition of growth at 10 µM (RPMI-8226) | inhibition of growth at 10 µM (SR) | inhibition of growth at 10 µM (EKVX) | inhibition of growth at 10 µM (HOP-62) | inhibition of growth at 10 µM (NCI-H226) | inhibition of growth at 10 µM (NCI-H23) | inhibition of growth at 10 µM (NCI-H322M) | inhibition of growth at 10 µM (NCI-H460) | inhibition of growth at 10 µM (NCI-H522) | inhibition of growth at 10 µM (COLO 205) | inhibition of growth at 10 µM (HCC 2998) | inhibition of growth at 10 µM (HCT-15) | inhibition of growth at 10 µM (HT-29) | inhibition of growth at 10 µM (KM12) | inhibition of growth at 10 µM (SW-620) | inhibition of growth at 10 µM (SF-268) | inhibition of growth at 10 µM (SF-539) | other results
1 | CN(C)c1ccc(/C=N/Nc2nc(Nc3ccccc3)nc(Nc3ccc(S(N)(=O)=O)cc3)n2)cc1 | 53% | 39% | 44% | 52% | 29% | < 10% | 12% | 21% | 13% | 15% | < 10% | 20% | < 10% | < 10% | 20% | 43% | 33% | 17% | 10% | 59% | inhibition of growth at 10 µM (SNB-75): 12%; inhibition of growth at 10 µM (U-251): 32%; inhibition of growth at 10 µM (LOX IMVI): 31%; inhibition of growth at 10 µM (MDA-MB-435): 11%; inhibition of growth at 10 µM (SK-MEL-2): 18%; inhibition of growth at 10 µM (SK-MEL-28): 10%; inhibition of growth at 10 µM (UACC-62): < 10%; inhibition of growth at 10 µM (OVCAR-3): 14%; inhibition of growth at 10 µM (OVCAR-5): < 10%; inhibition of growth at 10 µM (OVCAR-8): 31%; inhibition of growth at 10 µM (NCI/ADR-RES): < 10%; inhibition of growth at 10 µM (SK-OV-3): < 10%; inhibition of growth at 10 µM (A498): 14%; inhibition of growth at 10 µM (ACHN): 15%; inhibition of growth at 10 µM (RXF 393): 35%; inhibition of growth at 10 µM (PC-3): 38%; inhibition of growth at 10 µM (DU-145): 26%; inhibition of growth at 10 µM (BT-549): < 10%; inhibition of growth at 10 µM (T47D): 52%; inhibition of growth at 10 µM (MDA-MB-468): 14%
2 | NS(=O)(=O)c1ccc(Nc2nc(N/N=C/c3ccc([N+](=O)[O-])cc3)nc(Nc3ccccc3)n2)cc1 | 88% | 79% | 88% | 56% | 84% | 16% | 90% | 40% | 87% | 60% | 98% | 51% | 76% | 80% | 13% | 75% | 62% | 81% | 73% | 136% | inhibition of growth at 10 µM (SNB-75): 54%; inhibition of growth at 10 µM (U-251): 81%; inhibition of growth at 10 µM (LOX IMVI): 120%; inhibition of growth at 10 µM (MDA-MB-435): 66%; inhibition of growth at 10 µM (SK-MEL-2): 81%; inhibition of growth at 10 µM (SK-MEL-28): 64%; inhibition of growth at 10 µM (UACC-62): 54%; inhibition of growth at 10 µM (OVCAR-3): 53%; inhibition of growth at 10 µM (OVCAR-5): 18%; inhibition of growth at 10 µM (OVCAR-8): 66%; inhibition of growth at 10 µM (NCI/ADR-RES): < 10%; inhibition of growth at 10 µM (SK-OV-3): 32%; inhibition of growth at 10 µM (A498): 81%; inhibition of growth at 10 µM (ACHN): 17%; inhibition of growth at 10 µM (RXF 393): 105%; inhibition of growth at 10 µM (PC-3): 49%; inhibition of growth at 10 µM (DU-145): 56%; inhibition of growth at 10 µM (BT-549): 81%; inhibition of growth at 10 µM (T47D): 85%; inhibition of growth at 10 µM (MDA-MB-468): 98%
